This note sets out measurements from patent publication US20100021940A1, “Method for Determining the Activity of a Protease in a Sample” (ASTRAZENECA AB, priority 2006, published 2010).

Common to all, as to experiment: Activity of purified MMP on substrate (reporter release)
Common to all, as to assay type: biochemical

One assay deals with MMP13 (Homo sapiens, UniProt P45452). The settings on record: 30 μM substrate; MMP Conc. 1.2 nM; AZAP0.5 mg/ml. The source says:
(§1) In order to confirm the specificity of the substrates for various MMPs, standard enzymatic assays were adapted to monitor the release of reporter. The reporter was either analysed by a LC-MS method as described in Example 3a, or by a LC-UV method as described in Example 4.
(§2) A protocol for testing against other matrix metalloproteinases, including MMP9, using expressed and purified pro MMP is described, for instance, by C. Graham Knight et al., (1992) FEBS Lett., 296(3), 263-266.

The target of another assay is T1, MMP2 (Homo sapiens, UniProt P08253).
T1 sequence (P08253 110-660): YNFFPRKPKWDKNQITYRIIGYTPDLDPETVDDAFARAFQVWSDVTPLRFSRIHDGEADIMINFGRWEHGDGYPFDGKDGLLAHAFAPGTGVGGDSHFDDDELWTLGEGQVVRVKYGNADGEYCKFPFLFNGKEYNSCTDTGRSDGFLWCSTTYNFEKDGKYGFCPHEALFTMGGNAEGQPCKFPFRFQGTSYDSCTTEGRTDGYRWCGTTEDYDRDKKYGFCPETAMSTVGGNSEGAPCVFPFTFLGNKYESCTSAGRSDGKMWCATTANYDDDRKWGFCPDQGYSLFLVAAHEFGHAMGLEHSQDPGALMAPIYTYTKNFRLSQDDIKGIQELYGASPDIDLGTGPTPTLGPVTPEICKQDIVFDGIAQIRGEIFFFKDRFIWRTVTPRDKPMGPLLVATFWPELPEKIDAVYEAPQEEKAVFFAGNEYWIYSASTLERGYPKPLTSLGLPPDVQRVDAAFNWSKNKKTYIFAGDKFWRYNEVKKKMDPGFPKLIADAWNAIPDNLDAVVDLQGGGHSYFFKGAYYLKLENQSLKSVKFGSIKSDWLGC
Conditions: 30 μM substrate; MMP Conc. 0.71 nM; Chemicon #CC071.
From the text: as §1, §2

A further assay deals with MMP16 (Homo sapiens, UniProt P51512). The settings on record: 30 μM substrate; MMP Conc. 4.3 nM; Calbiochem #475939.
From the text: as §1, §2

A further assay addresses MMP3 (Homo sapiens, UniProt P08254). The source says: (§3) In order to confirm the specificity of the substrates for various MMPs, standard enzymatic assays were adapted to monitor the release of reporter. The reporter was either analysed by a LC-MS method as described in Example 3a, or by a LC-UV method as described in Example 4. A protocol for testing against other matrix metalloproteinases, including MMP9, using expressed and purified pro MMP is described, for instance, by C.

The target of a further assay is T2, MMP1 (Homo sapiens, UniProt P03956).
T2 sequence (P03956 100-469): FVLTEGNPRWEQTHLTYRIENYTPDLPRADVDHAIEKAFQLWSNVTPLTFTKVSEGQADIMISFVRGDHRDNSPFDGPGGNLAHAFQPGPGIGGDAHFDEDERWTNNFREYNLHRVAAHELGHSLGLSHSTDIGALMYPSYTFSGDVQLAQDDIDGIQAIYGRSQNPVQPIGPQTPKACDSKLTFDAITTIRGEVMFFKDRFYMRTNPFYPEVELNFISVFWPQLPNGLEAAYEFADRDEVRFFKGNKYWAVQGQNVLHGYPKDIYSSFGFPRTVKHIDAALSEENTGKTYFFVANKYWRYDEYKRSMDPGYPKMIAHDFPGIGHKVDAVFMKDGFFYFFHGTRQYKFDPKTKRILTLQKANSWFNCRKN
From the text: as §3

MMP3, sequence (P08254 100-477): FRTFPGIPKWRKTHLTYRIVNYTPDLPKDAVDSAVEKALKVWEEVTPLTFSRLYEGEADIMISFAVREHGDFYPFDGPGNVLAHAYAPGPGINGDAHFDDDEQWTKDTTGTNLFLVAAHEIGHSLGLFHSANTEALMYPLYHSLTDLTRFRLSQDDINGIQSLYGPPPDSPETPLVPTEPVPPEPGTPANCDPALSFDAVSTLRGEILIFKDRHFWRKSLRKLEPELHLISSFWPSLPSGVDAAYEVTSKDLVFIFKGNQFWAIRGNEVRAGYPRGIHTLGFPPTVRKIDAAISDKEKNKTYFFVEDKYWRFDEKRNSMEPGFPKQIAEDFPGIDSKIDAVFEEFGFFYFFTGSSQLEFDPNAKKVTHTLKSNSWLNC
MMP16, sequence (P51512 120-607): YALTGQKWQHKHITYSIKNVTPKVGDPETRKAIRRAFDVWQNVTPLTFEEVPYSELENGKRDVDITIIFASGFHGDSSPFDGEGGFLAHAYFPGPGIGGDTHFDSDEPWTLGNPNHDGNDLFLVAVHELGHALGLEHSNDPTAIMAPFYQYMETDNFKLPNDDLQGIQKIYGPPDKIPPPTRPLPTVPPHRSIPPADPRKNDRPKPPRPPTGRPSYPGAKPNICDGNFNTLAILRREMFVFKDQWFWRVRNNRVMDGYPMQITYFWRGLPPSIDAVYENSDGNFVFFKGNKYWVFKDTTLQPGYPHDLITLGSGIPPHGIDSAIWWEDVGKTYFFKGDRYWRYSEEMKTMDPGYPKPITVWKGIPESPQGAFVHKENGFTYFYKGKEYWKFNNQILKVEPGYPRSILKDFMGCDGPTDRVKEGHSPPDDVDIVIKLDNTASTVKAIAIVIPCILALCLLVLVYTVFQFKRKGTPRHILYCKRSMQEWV

For the molecule `COC(=O)CCNC(=O)[C@H](CC(C)C)NC(=O)[C@@H](NC(=O)CNC(=O)[C@H](CC(C)C)NC(=O)[C@@H]1CCCN1C(C)=O)Nc1ccc([N+](=O)[O-])cc1` [Example 1.1, Methyl 1-acetyl-L-prolyl-L-leucylglycyl-α-R-(4-nitrophenylamino)-glycyl-L-leucyl-β-alaninate], the Activity came out at 1.9 units/s at MMP13; 2.3 units/s on MMP2; 1.4 units/s on MMP16; 0.048 units/s on MMP3 (30 μM substrate, MMP Conc. 19 nM, AZL0095); 0.16 units/s at MMP1 (30 μM substrate, MMP Conc. 9.3 nM, Calbiochem #444208). For the same molecule, the “Activity of selected substrates with MMPs” value was 3.8 units/s (molRXH/molEnz * s) on MMP3 (Table 1b, MMP3) and 26.1 units/s (molRXH/molEnz * s) at MMP1 (Table 1b, MMP1).
